ChEMBL document CHEMBL5661973, “BI 2536, a potent and selective inhibitor of polo-like kinase 1, inhibits tumor growth in vivo” (Curr Biol, 2007)
One block for each molecule: values may come before it. Activity calls are given as the source filed them. No cut-off for these calls is given here.

Key:
HeLa S3 = experiment: Antiproliferative activity against human HeLa S3 cells assessed as inhibition in cell growth incubated for 72 hrs by Alamar Blue dye based fluorescence spectrophotometric analysis; format: functional; conditions: HeLa S3, 72 h
HeLa [1] = experiment: Antimitotic activity against human HeLa cells assessed as centrosomal gamma tubulin recruitment at 100 to 2500 nM incubated for 2 hrs by immunofluorescence analysis; format: functional, cell-based; conditions: dose 100-2500 nM
HeLa [2] = experiment: Antimitotic activity against human HeLa cells assessed as accumulation multipolar spindles at 100 to 2500 nM incubated for 2 hrs by immunofluorescence analysis; format: functional, cell-based; conditions: dose 100-2500 nM
HeLa [3] = experiment: Antimitotic activity against human HeLa cells assessed as monopolar asters at 100 to 2500 nM incubated for 2 hrs by immunofluorescence analysis; format: functional, cell-based; conditions: dose 100-2500 nM
HeLa [4] = experiment: Antimitotic activity against human HeLa cells assessed as accumulation in depolymerization of microtubules in interphase cells at 2500 nM incubated for 2 hrs by immunostaining; format: functional, cell-based
[5] = target: Receptor tyrosine-protein kinase erbB-4 (Homo sapiens, UniProt Q15303); experiment: Inhibition of ErbB4 (unknown origin)
HeLa [6] = experiment: Antimitotic activity against human HeLa cells assessed as change in S phase at 60 nM incubated for 48 hrs by flow cytometric analysis; format: functional, cell-based
NCI-H460 [7] = experiment: Antitumor activity against human NCI-H460 cells xenografted female BomTac:NMRI-Foxn1nu mouse assessed as appearance of massive tumor cell at 60 mg/kg, iv after 48 hrs administration by TUNEL staining; format: functional, organism-based
[8] = target: Fibroblast growth factor receptor 3 (Homo sapiens, UniProt P22607); experiment: Inhibition of FGFR3 (unknown origin)
BRO melanoma cell line = experiment: Antiproliferative activity against human BRO melanoma cell line assessed as inhibition in cell growth incubated for 72 hrs by Alamar Blue dye based fluorescence spectrophotometric analysis; format: functional
HeLa [9] = experiment: Antimitotic activity against human HeLa cells assessed as appearance and distribution of phenotypes at 50 nM incubated for 2 hrs by immunofluorescence analysis; format: functional, cell-based
HeLa [10] = experiment: Antimitotic activity against human HeLa cells assessed as accumulation of mitotic cells with spindles at 25 nM incubated for 2 hrs by immunofluorescence analysis; format: functional, cell-based
TERT-RPE1 [11] = experiment: Antimitotic activity against hTERT-RPE1 cells assessed as remaining cell arrest at 100 nM by immunofluorescence analysis relative to control; format: functional, Homo sapiens
HeLa [12] = experiment: Antimitotic activity against human HeLa cells assessed as DNA breakdown at 60 nM incubated after 48 hrs by flow cytometric analysis; format: functional, cell-based
HeLa [13] = experiment: Antimitotic activity against human HeLa cells assessed as cell apoptosis at 60 nM incubated after 48 hrs by flow cytometric analysis; format: functional, cell-based
[14] = Toxicity in against human HCT-116 cells xenografted female BomTac:NMRI-Foxn1nu mouse assessed as body weight change at 40 mg/kg, iv twice per week administrated for 2 consecutive days; format: organism-based; conditions: in vivo, 96 h, time 4 day
Mus musculus = species: Mus musculus; experiment: Inhibition of mouse Plk1
HeLa [15] = experiment: Antimitotic activity against human HeLa cells assessed as DNA breakdown at 60 nM incubated after 24 hrs by flow cytometric analysis; format: functional, cell-based
HeLa [16] = experiment: Antimitotic activity against human HeLa cells assessed as change in anaphase at 25 nM incubated for 2 hrs by immunofluorescence analysis; format: functional, cell-based
A549 = experiment: Antitumor activity against human A549 cells xenografted female BomTac:NMRI-Foxn1nu mouse assessed as T/C at 50 mg/kg, iv twice per week administrated for 2 consecutive days relative to control; format: functional; conditions: time 4 day
[17] = target: Mitogen-activated protein kinase 14 (Homo sapiens, UniProt Q16539); experiment: Inhibition of p38alpha (unknown origin)
[18] = target: Mitogen-activated protein kinase 11 (Homo sapiens, UniProt Q15759); experiment: Inhibition of p38beta (unknown origin)
[19] = target: Serine/threonine-protein kinase B-raf (Homo sapiens, UniProt P15056); experiment: Inhibition of B-RAF (unknown origin)
HeLa [20] = experiment: Antimitotic activity against human HeLa cells assessed as appearance of monopolar polo spindles at 100 to 1000 nM incubated for 2 hrs by immunofluorescence analysis; format: functional, cell-based; conditions: dose 100-1000 nM
[21] = target: Mitogen-activated protein kinase 8 (Homo sapiens, UniProt P45983); experiment: Inhibition of JNK1 (unknown origin)
HCT-116 [22] = experiment: Antitumor activity against human HCT-116 cells xenografted female BomTac:NMRI-Foxn1nu mouse assessed as T/C at 40 mg/kg, iv once per week administrated for 2 consecutive days relative to control; format: functional; conditions: time 4 day
[23] = target: Serine/threonine-protein kinase Sgk1 (Homo sapiens, UniProt O00141); experiment: Inhibition of SGK (unknown origin)
Sequence of Serine/threonine-protein kinase Sgk1 (O00141 whole entry, the tested form may be a part): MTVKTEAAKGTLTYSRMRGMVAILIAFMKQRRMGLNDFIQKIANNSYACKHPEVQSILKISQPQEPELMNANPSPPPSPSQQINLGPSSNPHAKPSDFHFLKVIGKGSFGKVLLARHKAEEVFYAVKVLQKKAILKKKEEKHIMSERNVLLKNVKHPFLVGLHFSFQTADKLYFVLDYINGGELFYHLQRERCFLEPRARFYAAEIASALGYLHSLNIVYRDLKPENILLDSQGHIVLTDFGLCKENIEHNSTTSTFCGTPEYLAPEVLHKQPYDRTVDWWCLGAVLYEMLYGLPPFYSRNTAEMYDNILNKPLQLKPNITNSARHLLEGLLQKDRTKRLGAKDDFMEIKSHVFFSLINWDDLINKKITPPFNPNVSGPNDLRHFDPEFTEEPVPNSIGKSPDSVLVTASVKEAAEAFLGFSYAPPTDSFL

HeLa [24] = experiment: Antimitotic activity against human HeLa cells assessed as accumulation in cleaved PARP p85 fragment at 60 nM incubated after 48 hrs by westernblot analysis; format: functional, cell-based
HeLa [25] = experiment: Antimitotic activity against human HeLa cells assessed as cell cycle at 10 nM incubated for 2 hrs by immunofluorescence analysis; format: functional, cell-based
[26] = target: Phosphatidylinositol 4,5-bisphosphate 3-kinase catalytic subunit alpha isoform (Homo sapiens, UniProt P42336); experiment: Inhibition of PI3Ka (unknown origin)
Sequence of Phosphatidylinositol 4,5-bisphosphate 3-kinase catalytic subunit alpha isoform (P42336 whole entry, canonical isoform): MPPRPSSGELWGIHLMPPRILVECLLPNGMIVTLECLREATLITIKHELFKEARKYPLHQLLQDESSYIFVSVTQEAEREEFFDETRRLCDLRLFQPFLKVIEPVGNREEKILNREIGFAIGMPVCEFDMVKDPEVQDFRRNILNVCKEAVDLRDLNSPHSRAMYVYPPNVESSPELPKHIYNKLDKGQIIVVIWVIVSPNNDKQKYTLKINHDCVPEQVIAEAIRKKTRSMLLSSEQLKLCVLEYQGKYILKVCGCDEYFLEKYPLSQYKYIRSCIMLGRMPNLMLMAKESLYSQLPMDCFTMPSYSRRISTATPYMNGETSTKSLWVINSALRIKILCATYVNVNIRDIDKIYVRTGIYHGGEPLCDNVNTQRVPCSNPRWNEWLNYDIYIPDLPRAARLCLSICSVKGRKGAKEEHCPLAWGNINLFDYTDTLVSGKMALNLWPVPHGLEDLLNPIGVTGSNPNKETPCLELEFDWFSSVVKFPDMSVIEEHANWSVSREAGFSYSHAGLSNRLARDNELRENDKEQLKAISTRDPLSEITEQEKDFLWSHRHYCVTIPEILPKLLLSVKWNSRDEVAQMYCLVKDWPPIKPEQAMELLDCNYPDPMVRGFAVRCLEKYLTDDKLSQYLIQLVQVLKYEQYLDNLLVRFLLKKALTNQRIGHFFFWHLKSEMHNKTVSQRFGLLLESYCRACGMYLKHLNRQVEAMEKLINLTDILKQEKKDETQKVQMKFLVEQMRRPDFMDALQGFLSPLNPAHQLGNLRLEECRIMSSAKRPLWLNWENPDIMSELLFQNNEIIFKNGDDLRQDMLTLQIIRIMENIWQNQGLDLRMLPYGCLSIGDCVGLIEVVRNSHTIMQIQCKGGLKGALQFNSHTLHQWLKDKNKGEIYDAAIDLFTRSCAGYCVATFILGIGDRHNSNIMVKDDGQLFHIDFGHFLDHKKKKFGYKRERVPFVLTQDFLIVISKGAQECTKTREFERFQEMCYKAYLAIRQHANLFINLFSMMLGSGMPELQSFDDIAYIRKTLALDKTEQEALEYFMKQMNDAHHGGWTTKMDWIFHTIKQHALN

NCI-H460 [27] = experiment: Antitumor activity against human NCI-H460 cells xenografted female BomTac:NMRI-Foxn1nu mouse assessed as appearance of cell apoptosis at 60 mg/kg, iv after 47 hrs administration by MRI assay; format: functional, organism-based
[28] = target: Tyrosine-protein kinase CSK (Homo sapiens, UniProt P41240); experiment: Inhibition of CSK (unknown origin)
[29] = target: Mitogen-activated protein kinase 12 (Homo sapiens, UniProt P53778); experiment: Inhibition of p38gamma (unknown origin)
Angiopoietin-1 receptor = Angiopoietin-1 receptor (Homo sapiens, UniProt Q02763); experiment: Inhibition of Tie2 (unknown origin)
HeLa [30] = experiment: Antimitotic activity against human HeLa cells assessed as arrest in G2/M phase measuring by accumulation in 4N DNA content at 10 nM incubated for 24 hrs by flow cytometric analysis; format: functional, cell-based
[31] = Toxicity in against human HCT-116 cells xenografted female BomTac:NMRI-Foxn1nu mouse assessed as body weight change at 40 mg/kg, iv once per week administrated for 2 consecutive days; format: organism-based; conditions: in vivo, 48 h, time 2 day
[32] = target: Tyrosine-protein kinase ABL1 (Homo sapiens, UniProt P00519); experiment: Inhibition of Abl (unknown origin)
Sequence of Tyrosine-protein kinase ABL1 (P00519 whole entry): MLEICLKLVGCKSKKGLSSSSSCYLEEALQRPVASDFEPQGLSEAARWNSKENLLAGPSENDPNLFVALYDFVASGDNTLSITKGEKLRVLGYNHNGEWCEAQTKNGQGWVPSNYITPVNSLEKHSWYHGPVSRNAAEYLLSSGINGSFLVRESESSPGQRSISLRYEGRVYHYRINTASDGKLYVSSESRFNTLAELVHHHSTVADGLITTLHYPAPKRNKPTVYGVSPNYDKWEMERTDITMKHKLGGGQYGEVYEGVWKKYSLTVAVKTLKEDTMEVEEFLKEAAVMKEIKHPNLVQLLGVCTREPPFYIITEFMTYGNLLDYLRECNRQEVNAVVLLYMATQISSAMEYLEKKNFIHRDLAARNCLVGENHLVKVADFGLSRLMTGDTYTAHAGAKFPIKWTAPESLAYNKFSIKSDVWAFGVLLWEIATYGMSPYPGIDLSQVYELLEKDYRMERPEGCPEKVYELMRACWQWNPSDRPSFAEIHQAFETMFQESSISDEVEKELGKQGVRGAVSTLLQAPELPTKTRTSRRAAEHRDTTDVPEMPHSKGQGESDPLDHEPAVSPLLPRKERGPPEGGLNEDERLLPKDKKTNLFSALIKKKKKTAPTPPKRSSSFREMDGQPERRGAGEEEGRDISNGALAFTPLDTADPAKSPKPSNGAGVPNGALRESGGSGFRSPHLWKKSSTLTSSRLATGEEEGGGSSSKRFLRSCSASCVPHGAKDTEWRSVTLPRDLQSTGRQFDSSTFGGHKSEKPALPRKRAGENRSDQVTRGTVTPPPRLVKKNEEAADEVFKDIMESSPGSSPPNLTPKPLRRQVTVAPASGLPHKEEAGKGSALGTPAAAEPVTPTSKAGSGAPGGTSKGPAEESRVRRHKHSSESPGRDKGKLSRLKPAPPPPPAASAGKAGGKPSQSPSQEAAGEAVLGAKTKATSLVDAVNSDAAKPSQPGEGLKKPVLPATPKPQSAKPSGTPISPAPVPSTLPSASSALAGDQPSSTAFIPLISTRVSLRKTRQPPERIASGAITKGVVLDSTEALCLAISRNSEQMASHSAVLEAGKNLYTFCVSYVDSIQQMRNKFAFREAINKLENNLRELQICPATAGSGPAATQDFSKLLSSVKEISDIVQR

[33] = target: RAC-beta serine/threonine-protein kinase (Homo sapiens, UniProt P31751); experiment: Inhibition of PKBbeta (unknown origin)
[34] = target: Platelet-derived growth factor receptor alpha (Homo sapiens, UniProt P16234); experiment: Inhibition of PDGFRa (unknown origin)
[35] = target: T1, Dual specificity mitogen-activated protein kinase kinase 1 (Homo sapiens, UniProt Q02750); experiment: Inhibition of MEK1 (unknown origin)
T1 sequence (Q02750 whole entry): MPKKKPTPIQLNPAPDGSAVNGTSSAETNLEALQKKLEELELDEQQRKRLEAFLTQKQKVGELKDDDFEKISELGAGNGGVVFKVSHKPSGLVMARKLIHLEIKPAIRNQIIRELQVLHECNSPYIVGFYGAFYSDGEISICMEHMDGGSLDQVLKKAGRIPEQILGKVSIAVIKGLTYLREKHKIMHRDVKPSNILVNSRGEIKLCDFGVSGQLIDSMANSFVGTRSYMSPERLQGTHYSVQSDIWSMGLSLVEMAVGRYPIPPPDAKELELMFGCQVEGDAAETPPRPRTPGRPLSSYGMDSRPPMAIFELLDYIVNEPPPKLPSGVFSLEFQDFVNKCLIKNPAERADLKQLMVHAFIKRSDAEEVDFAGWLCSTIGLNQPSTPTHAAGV

NCI-H460 [36] = experiment: Antitumor activity against human NCI-H460 cells xenografted female BomTac:NMRI-Foxn1nu mouse assessed as increase in histone H3 phosphorylation at 60 mg/kg, iv after 24 hrs administration by immunohistochemical method; format: functional, organism-based
[37] = target: Serine/threonine-protein kinase Nek6 (Homo sapiens, UniProt Q9HC98); experiment: Inhibition of Nek6 (unknown origin)
Sequence of Serine/threonine-protein kinase Nek6 (Q9HC98 whole entry): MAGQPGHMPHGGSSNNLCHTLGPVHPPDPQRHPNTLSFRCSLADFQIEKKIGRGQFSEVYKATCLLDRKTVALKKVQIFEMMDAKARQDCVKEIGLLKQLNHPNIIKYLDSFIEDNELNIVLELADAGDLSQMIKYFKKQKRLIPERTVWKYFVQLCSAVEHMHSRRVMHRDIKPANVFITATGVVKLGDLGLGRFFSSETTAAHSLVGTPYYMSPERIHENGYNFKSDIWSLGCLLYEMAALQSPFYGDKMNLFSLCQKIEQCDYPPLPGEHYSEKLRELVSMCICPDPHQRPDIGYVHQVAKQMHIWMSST

TERT-RPE1 [38] = experiment: Antimitotic activity against hTERT-RPE1 cells assessed as mitotic cell appearing typical polo phenotype at 100 nM by immunofluorescence analysis relative to control; format: functional, Homo sapiens
Ephrin type-A receptor 3 = Ephrin type-A receptor 3 (Homo sapiens, UniProt P29320); experiment: Inhibition of Hek (unknown origin)
HeLa [39] = experiment: Antimitotic activity against human HeLa cells assessed as accumulation in cleaved PARP p85 fragment at 60 nM incubated after 24 hrs by westernblot analysis; format: functional, cell-based
HCT-116 [40] = experiment: Antitumor activity against human HCT-116 cells xenografted female BomTac:NMRI-Foxn1nu mouse assessed as apparent diffusion coefficient of water at 50 mg/kg, iv administration and measured on day 4 by MRI assay; format: functional, organism-based; conditions: time 4.0 day
[41] = target: T1, Dual specificity mitogen-activated protein kinase kinase 1; experiment: Inhibition of MKK1 (unknown origin)
HeLa [42] = experiment: Antimitotic activity against human HeLa cells assessed as cell apoptosis at 60 nM incubated after 24 hrs by flow cytometric analysis; format: functional, cell-based
HCT-116 [43] = experiment: Antitumor activity against human HCT-116 cells xenografted female BomTac:NMRI-Foxn1nu mouse assessed as tumor suppression at 40 mg/kg, iv twice per week administrated for 2 consecutive days relative to control; format: functional; conditions: time 2 day
[44] = target: Macrophage-stimulating protein receptor (Homo sapiens, UniProt Q04912); experiment: Inhibition of Ron (unknown origin)
Sequence of Macrophage-stimulating protein receptor (Q04912 25-304 limits assumed): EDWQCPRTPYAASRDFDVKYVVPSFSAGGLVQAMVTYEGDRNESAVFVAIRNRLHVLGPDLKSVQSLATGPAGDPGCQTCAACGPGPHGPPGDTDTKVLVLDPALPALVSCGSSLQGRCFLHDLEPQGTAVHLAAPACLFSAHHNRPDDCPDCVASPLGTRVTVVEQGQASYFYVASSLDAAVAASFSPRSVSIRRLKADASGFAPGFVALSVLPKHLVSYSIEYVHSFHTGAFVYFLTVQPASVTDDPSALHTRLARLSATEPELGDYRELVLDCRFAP
Sequence of Macrophage-stimulating protein receptor (Q04912 310-1400 limits assumed): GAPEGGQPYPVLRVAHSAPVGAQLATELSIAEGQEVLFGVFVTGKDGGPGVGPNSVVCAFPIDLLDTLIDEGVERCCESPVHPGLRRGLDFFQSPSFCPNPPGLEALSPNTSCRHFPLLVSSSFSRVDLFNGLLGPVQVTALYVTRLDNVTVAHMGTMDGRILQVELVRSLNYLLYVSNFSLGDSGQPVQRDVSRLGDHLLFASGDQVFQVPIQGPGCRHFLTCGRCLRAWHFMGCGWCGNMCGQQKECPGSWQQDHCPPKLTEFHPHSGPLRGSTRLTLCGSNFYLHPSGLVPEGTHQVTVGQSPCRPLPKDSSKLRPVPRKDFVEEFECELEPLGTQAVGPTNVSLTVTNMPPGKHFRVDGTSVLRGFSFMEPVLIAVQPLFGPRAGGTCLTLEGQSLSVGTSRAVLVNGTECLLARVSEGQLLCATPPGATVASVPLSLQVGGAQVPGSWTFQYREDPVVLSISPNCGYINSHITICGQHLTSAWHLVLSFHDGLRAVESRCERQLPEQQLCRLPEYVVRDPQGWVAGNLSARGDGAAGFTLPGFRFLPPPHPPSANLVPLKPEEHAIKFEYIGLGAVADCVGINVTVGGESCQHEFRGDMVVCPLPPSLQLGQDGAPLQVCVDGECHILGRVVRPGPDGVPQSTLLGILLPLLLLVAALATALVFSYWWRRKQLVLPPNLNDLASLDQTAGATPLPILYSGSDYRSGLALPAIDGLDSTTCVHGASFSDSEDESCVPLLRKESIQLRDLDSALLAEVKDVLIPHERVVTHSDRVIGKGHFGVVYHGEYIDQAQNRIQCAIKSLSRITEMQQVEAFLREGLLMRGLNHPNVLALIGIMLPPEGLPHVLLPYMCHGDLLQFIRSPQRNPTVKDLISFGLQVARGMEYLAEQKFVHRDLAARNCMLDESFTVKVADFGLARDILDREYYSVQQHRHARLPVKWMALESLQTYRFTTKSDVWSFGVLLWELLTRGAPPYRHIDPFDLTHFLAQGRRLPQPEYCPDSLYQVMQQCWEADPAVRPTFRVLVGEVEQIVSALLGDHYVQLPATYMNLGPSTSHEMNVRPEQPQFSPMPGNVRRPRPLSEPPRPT

HeLa [45] = experiment: Antimitotic activity against human HeLa cells assessed as cell arrest in G2/M phase at 60 nM incubated for 48 hrs by flow cytometric analysis; format: functional, cell-based
HCT-116 [46] = experiment: Antitumor activity against human HCT-116 cells xenografted female BomTac:NMRI-Foxn1nu mouse assessed as induction in tumor regression at 50 mg/kg, iv twice per week administrated for 2 consecutive days relative to control; format: functional, organism-based; conditions: time 4.0 day
NCI-H460 [47] = experiment: Antitumor activity against human NCI-H460 cells xenografted female BomTac:NMRI-Foxn1nu mouse assessed as increase in mitotic index at 60 mg/kg, iv after 24 hrs administration by immunohistochemical method; format: functional, organism-based
[48] = target: Serine/threonine-protein kinase PAK 2 (Homo sapiens, UniProt Q13177); experiment: Inhibition of PAK2 (unknown origin)
[49] = target: Platelet-derived growth factor receptor beta (Homo sapiens, UniProt P09619); experiment: Inhibition of PDGFRb (unknown origin)
BXPC-3 = experiment: Antitumor activity against human BXPC-3 cells xenografted female BomTac:NMRI-Foxn1nu mouse assessed as T/C at 50 mg/kg, iv twice per week administrated for 2 consecutive days relative to control; format: functional; conditions: time 4 day
HeLa [50] = experiment: Antimitotic activity against human HeLa cells assessed as change in telophase at 25 nM incubated for 2 hrs by immunofluorescence analysis; format: functional, cell-based
[51] = target: RAF proto-oncogene serine/threonine-protein kinase (Homo sapiens, UniProt P04049); experiment: Inhibition of C-RAF (unknown origin)

EC50 (HeLa S3): 0.045 µM
SMILES: COc1cc(OC)c(/C=C/S(=O)(=O)Cc2ccc(OC)c(NCC(=O)O)c2)c(OC)c1 [RIGOSERTIB]
Activity (HeLa [1]): Active
Activity (HeLa [2]): Active
Activity (HeLa [3]): inactive
Activity (HeLa [4]): Active

IC50 [5]: 9.91 µM
IC50 [8]: > 10 µM
EC50 (BRO melanoma cell line): 0.002 µM
inhibition (Mus musculus): Active
IC50 [17]: > 10 µM
IC50 [18]: > 10 µM
IC50 [19]: > 10 µM
IC50 [21]: > 10 µM
IC50 [23]: > 10 µM
IC50 [26]: 2.41 µM
IC50 [28]: > 10 µM
IC50 [29]: > 10 µM
IC50 (Angiopoietin-1 receptor): 6.55 µM
IC50 [32]: > 10 µM
IC50 [33]: > 10 µM
IC50 [34]: > 10 µM
IC50 [35]: > 10 µM
IC50 [37]: > 10 µM
IC50 (Ephrin type-A receptor 3): > 10 µM
IC50 [41]: > 10 µM
IC50 [44]: > 10 µM
IC50 [48]: > 10 µM
IC50 [49]: > 10 µM
IC50 [51]: > 10 µM
SMILES: CC[C@@H]1C(=O)N(C)c2cnc(Nc3ccc(C(=O)NC4CCN(C)CC4)cc3OC)nc2N1C1CCCC1 [BI-2536]
Activity (HeLa [6]): inactive
Activity (NCI-H460 [7]): Active
Activity (HeLa [9]): Active
Activity (HeLa [10]): Active
Activity (TERT-RPE1 [11]): ~30%
Activity (HeLa [12]): Active
Activity (HeLa [13]): Active
Activity [14]: Non-Toxic
Activity (HeLa [15]): Active
Activity (HeLa [16]): inactive
T/C (A549): 14%
Activity (HeLa [20]): Active
T/C (HCT-116 [22]): 16%
Activity (HeLa [24]): Active
Activity (HeLa [25]): Active
Activity (NCI-H460 [27]): Active
Activity (HeLa [30]): Active
Activity [31]: Non-Toxic
Activity (NCI-H460 [36]): Active
Activity (TERT-RPE1 [38]): ~70%
Activity (HeLa [39]): Active
Activity (HCT-116 [40]): Active
Activity (HeLa [42]): Active
Activity (HCT-116 [43]): 100%
Activity (HeLa [45]): Active
Activity (HCT-116 [46]): Active
Activity (NCI-H460 [47]): Active
T/C (BXPC-3): 5%
Activity (HeLa [50]): inactive
